Experiments:
Cdc7/Dbf4 = Cdc7/Dbf4 (Homo sapiens, UniProt O00311); test: Cdc7 Biochemical Assay Method 3: Cdc7/Dbf4 Enzyme TR-FRET Assay measuring pS40MCM2; conditions: 1 μM ATP, read-out: Biochemical Method 3 (pIC50) (converted)
In short: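 2.5 nM Cdc7/Dbf4 incubated with 100 nM biotinylated MCM2-derived peptide and 1 μM ATP, 120 minutes at 25° C. Phospho-S40 detected by TR-FRET using anti-pS40 Mcm2 antibody, terbium anti-rabbit secondary and streptavidin-Alexa Fluor488.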

Cdc7/ASK [1] = target: T1, Cdc7/ASK (Homo sapiens, UniProt O00311); test: Cdc7 Biochemical Assay Method 1: 384 well ELISA, whole protein substrate MCM2, antibody against Phospho MCM2 (S53); parameters: purchased; conditions: 2 μM ATP, read-out: Biochemical Method 1 (pIC50) (converted)
In short: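 MCM2 protein substrate was coated on nickel-chelate plates, then Cdc7/ASK was added with 2 μM ATP in 50 mM Tris-HCl pH 8.5, 10 mM MgCl2, 1 mM DTT, 4% DMSO, 90 min at room temperature. Phospho-MCM2 (S53) was detected by ELISA with an AP secondary and PNPP absorbance. IC50 was derived from % inhibition versus no-compound and no-enzyme controls.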

Cdc7/ASK [2] = target: T1, Cdc7/ASK; test: Cdc7 Biochemical Assay Method 2: 384 well mobility shift assay (EZ Reader II), MCM2 peptide substrate; parameters: purchased; conditions: 12.5 μM ATP, read-out: Biochemical Method 2 (pIC50) (converted)
Method: This protocol describes a method for assaying Cdc7/ASK for activity. The assay is a 384 well mobility shift assay (MSA) run on the EZ Reader II microfluidics plate reader (Caliper LifeSciences), utilising a peptide substrate based on the MCM2 sequence. The assay technology is based on the change in mobility between the peptide substrate and the phosphorylated product. A 10 nL volume of the reaction mixture is sipped onto the microfluidic chip where the substrate and product are separated by electrophoresis and detected via laser-induced fluorescence (488 nm LED). The reaction can be monitored in real-time for kinetic experiments or as an end-point for IC50 determinations. The % conversion of substrate is calculated from peak heights of product (P) and substrate (S) peptides (% conversion=P/(P+S)*100).
• 10× Assay Buffer: 200 mM HEPES pH 8, 100 mM MgCl2, 0.1% v/v Triton X-100 and 15 mM DTT. Prepare fresh buffer from 1 M HEPES pH 8, 1 M MgCl2, 1 M DTT and 10% Triton x-100 stocks for each experiment. • Cdc7/ASK is purchased from commercial suppliers and used in the assay at a final assay concentration of 0.847 ng/μL or 9.2 nM. • MCM2 peptide is purchased from commercial suppliers and used in the assay at a final assay concentration of 2.5 μM. • ATP used in the assay at a final assay concentration of 12.5 μM. Methods • 1. Prepare intermediate (daughter) compound plate by transferring 2 μL of compound from the mother plate to 18 μL of 33.3% DMSO in a clear polypropylene plate. • 2. Dry-spot 1 μL of compound from the intermediate compound plate to empty assay plate. • 3. Add 5 μL of 1.694 ng/μL CDC7/ASK working solution to ‘test’ and ‘control’ wells or […] of 2× Assay Buffer to ‘blank’ wells. • 4. Add 4 μL 2.5 μM peptide/12.5 μM ATP working solution to all wells. • 5. Incubate at 37° C. for 1 hour then remove from the incubator and leave for a further 1 hour at room temperature. • 6. Place plate into an EZReader II to read.
Percentage inhibition values were calculated from % of substrate conversion values, using the no compound (DMSO) and no enzyme control values as 0% and 100% inhibition, respectively. IC50 determination was performed with ExcelFit software (IDBS) using curve fit 205. Z′ factors were determined for each plate tested and were all above 0.5.

[3] = system: Cdc7 (pS53MCM2 levels in HCT116 cells); test: Cdc7 Cell Pharmacodynamics Assay Method 1: pS53MCM2 levels in HCT116 cells, 6 hours; assay type: cell-based; conditions: Homo sapiens, HCT-116, 6 h, read-out: Biomarker Method 1 (pEC50) (converted)
Source text: This protocol describes a method to investigate the inhibition of Cdc7 activity of compounds by measuring pS53MCM2 levels in cells after treatment.
• HCT116 cells (wild type P53 positive) • McCoys 5A media (PAA Laboratories Ltd, E15-022) • 10% FCS (Sera Laboratories International Ltd, EU000F Batch:108005) • 100× L-Glutamine (Invitrogen, 25030-024) • D-PBS without CaCl2 and MgCl2 (Invitrogen, ref 14190-094) • Trypsin/EDTA (Invitrogen 25300-054) • 2% BSA in PBS • Cell Extraction Buffer (Invitrogen FNN0011) • Protease inhibitor cocktail (Sigma P-2714) • PMSF 0.3M stock in DMSO (Sigma P7626) • Antibody-rabbit pMCM2 Ser53 (Bethyl #A300-756A) • Antibody-goat MCM2 (Bethyl #A300-122A) • Antibody-goat Anti Rabbit IgG HRP (Perbio Science UK Ltd 31462) • 1×PBS • FACE Wash buffer (0.02% Triton X100 in 1×PBS) • SuperSignal ELISA Pico Chemiluminescent Substrate (Perbio Science UK Ltd 37070) Method • 72 hours prior to the start of the experiment plate 1×10^6 HCT 116 cells in a 150 cm^2 flask in complete McCoys 5A media (+10% FCS+1× L-glutamine). • Plate 20,000 HCT116 cells per well in standard TC treated 96 well plate in 100 μL complete McCoys 5A media. • Allow cells to settle overnight in incubator set at 37° C. and 5% CO2. • Remove intermediate plate from fridge and place at 37° C. overnight to allow to equilibrate. • Cell treatment: cell assay plate 100 μL; daughter to cell transfer volume 3.33 μL; daughter volume 45 μL; mother plate to daughter volume 5 μL. • Once all cells are treated remove the cells to the incubator and incubate for 6 hours. • Dilute the capture antibody (total MCM2#A300-122A) 1 in 250 in the required volume of PBS (5 mL per assay plate) and add 50 μL to each well of a Hybond plate excluding wells 12E to 12H. In these wells add 50 μL PBS. Seal the plate and incubate at room temperature for a minimum of 2 hours. • Defrost aliquot of Invitrogen Cell Extraction Buffer (FNN0011) on ice and supplement with appropriate volume of both Sigma protease inhibitor cocktail (P-2714) and PMSF (final conc 1 mM from a 1 M stock in DMSO). • After the 6 hour cell treatment time tap out the media from the assay plates and place them in the −70° C. freezer for at least 5 minutes. • Remove plates from freezer and add 20 μL of ice cold complete lysis buffer on ice. Incubate cells for 30 minutes at 4° C. • Add 80 μL per well 2% BSA. • Transfer 80 μL from the lysis plate to the same wells in the capture/ELISA plate. Cover with plate seal and incubate plates overnight at 4° C. • Wash plates with PBS, remove any residual remaining liquid and add 50 μL per well of pMCM2 Ser53 antibody (#A300-756A) diluted 1 in 100 in 2% BSA. Cover plate and incubate at room temperature for 2 hours with gentle shaking. • Wash plates with PBS, remove any residual remaining liquid and Incubate with 50 μL goat anti rabbit antibody (1 in 800 dilution in 2% BSA) for 1 hour at room temperature. • Wash plates with PBS, remove any residual remaining liquid and add 50 μL mixed SuperSignal Pico substrate. • Incubate each plate for 5 minutes at room temperature shielding the plates from direct light (with a cover plate). Read plates with the luminescent detection. Method 2A and 2B

T1 sequence (O00311 whole entry): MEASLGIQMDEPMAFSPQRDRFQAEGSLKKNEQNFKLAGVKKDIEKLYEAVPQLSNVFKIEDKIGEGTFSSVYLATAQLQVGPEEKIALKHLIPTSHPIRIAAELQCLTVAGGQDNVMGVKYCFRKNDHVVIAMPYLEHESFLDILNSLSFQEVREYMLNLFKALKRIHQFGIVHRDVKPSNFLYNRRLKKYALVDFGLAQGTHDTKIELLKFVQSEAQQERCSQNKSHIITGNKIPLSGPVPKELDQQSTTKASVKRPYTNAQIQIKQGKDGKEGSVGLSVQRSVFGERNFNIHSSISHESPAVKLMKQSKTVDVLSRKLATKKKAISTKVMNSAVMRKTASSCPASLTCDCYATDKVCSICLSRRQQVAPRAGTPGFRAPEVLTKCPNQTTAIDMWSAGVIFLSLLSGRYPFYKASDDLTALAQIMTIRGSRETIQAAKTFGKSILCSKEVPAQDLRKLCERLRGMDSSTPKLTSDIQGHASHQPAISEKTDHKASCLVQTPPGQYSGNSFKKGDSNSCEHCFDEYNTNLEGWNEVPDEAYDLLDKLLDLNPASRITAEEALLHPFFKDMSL
T1 sequence (Q9UBU7 whole entry partner): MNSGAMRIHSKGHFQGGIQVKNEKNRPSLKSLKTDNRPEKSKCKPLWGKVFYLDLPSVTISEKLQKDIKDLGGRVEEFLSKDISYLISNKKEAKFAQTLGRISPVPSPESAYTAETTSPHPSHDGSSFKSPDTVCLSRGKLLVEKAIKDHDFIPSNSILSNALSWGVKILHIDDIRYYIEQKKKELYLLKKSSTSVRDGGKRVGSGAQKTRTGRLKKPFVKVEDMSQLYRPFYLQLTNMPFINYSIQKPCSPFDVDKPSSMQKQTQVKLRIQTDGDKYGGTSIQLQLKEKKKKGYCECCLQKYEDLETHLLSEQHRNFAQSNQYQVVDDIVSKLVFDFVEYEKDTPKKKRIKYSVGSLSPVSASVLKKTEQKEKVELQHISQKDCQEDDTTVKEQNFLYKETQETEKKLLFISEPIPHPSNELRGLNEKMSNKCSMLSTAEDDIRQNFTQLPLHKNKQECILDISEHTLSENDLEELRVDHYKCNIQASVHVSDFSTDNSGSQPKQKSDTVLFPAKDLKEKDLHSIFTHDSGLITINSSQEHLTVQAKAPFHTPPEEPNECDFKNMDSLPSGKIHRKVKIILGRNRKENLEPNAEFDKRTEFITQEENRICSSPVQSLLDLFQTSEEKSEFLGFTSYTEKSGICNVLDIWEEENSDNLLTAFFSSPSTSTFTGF
Cdc7/Dbf4, sequence (O00311 whole entry): as the sequence (O00311 whole entry) above
Cdc7/Dbf4, sequence (Q9UBU7 whole entry partner): as the sequence (Q9UBU7 whole entry partner) above

Row | IC50 (Cdc7/Dbf4) [nM] | IC50 (Cdc7/ASK [1]) [nM] | IC50 (Cdc7/ASK [2]) [nM] | EC50 [3] [nM] | Structure (SMILES)
1 | 102 | 437 | 170 |  | CC(C)C[C@H]1CN2CCC[C@H]2CN1c1nc(-c2ccncc2)[nH]c(=O)c1Cl [Compound 184]
2 |  | 3.63 | 2.29 |  | CC(F)(F)[C@H]1CN(c2nc(-c3ccncc3)[nH]c(=O)c2Cl)CCN1 [Compound 307]
3 |  |  | 1.51 | 63.1 | CC(F)(F)[C@H]1CN(c2nc(-c3ccnc(F)c3)[nH]c(=O)c2Cl)CCN1 [Compound 315]
4 |  |  | 14.1 |  | NC[C@@H]1CCN(c2nc(-c3ccnc(F)c3)[nH]c(=O)c2Cl)C1 [Compound 318]
5 |  |  | 2.29 | 457 | NC1CCN(c2nc(-c3ccnc(F)c3)[nH]c(=O)c2Cl)CC1 [Compound 321]
6 |  |  | 1.38 | 42.7 | CC(C)(C)[C@H]1CN(c2nc(-c3ccnc(F)c3)[nH]c(=O)c2Cl)CCN1 [Compound 322]
7 |  |  | 7.08 | 263 | C[C@H]1COCCN1c1nc(-c2ccncc2)[nH]c(=O)c1Cl [Compound 365]
8 |  |  | 60.3 |  | CCCC1COCCN1c1nc(-c2ccncc2)[nH]c(=O)c1Cl (stereo not shown) [Compound 366]
9 |  |  | 295 |  | CC(C)CC1COCCN1c1nc(-c2ccncc2)[nH]c(=O)c1Cl (stereo not shown) [Compound 367]
10 |  |  | 0.603 | 15.5 | CC1CNCCN1c1nc(-c2ccncc2)[nH]c(=O)c1Cl (stereo not shown) [Compound 368]
11 |  |  | 5.5 | 891 | CC[C@H]1CNCCN1c1nc(-c2ccncc2)[nH]c(=O)c1Cl [Compound 369]
12 |  |  | 12 | 1020 | CC(C)[C@H]1CNCCN1c1nc(-c2ccncc2)[nH]c(=O)c1Cl [Compound 370]
13 |  |  | 3.09 | 245 | CC[C@@H]1CNCCN1c1nc(-c2ccncc2)[nH]c(=O)c1Cl [Compound 371]
14 |  |  | 263 |  | O=c1[nH]c(-c2ccncc2)nc(N2CCNCC2c2ccccc2)c1Cl (stereo not shown) [Compound 372]
15 |  |  | 5.25 | 257 | CC(C)[C@H]1CN(c2nc(-c3ccncc3)[nH]c(=O)c2Br)CCN1 [Compound 408, 5-bromo-4-[(3S)-3-isopropylpiperazin-1-yl]-2-(4-pyridyl)-1H-pyrimidin-6-one]
16 |  |  | 11.5 |  | CC(C)[C@H]1CN(c2nc(-c3ccncc3)[nH]c(=O)c2C#N)CCN1 [Compound 409, 4-[(3S)-3-isopropylpiperazin-1-yl]-6-oxo-2-(4-pyridyl)-1H-pyrimidine-5-carbonitrile]
17 |  |  | 9.12 | 269 | CC(C)(C)[C@H]1CN(c2nc(-c3ccncc3)[nH]c(=O)c2Br)CCN1 [Compound 410, 5-bromo-4-[(3S)-3-tert-butylpiperazin-1-yl]-2-(4-pyridyl)-1H-pyrimidin-6-one]
18 |  |  | 10.5 |  | CC(C)(C)[C@H]1CN(c2nc(-c3ccncc3)[nH]c(=O)c2C#N)CCN1 [Compound 411, 4-[(3S)-3-tert-butylpiperazin-1-yl]-6-oxo-2-(4-pyridyl)-1H-pyrimidine-5-carbonitrile]
